“And” between values parts separate entries of the source, which are not always exact repeats. Equal values may be shown once. Toxic doses and inconclusive results are not listed. How the source made its calls: active means survival T/C of 150% or more; inactive means T/C below 125% in these data.
Test system: P388 leukemia ip, CD2F1 mice, survival T/C
Experiment: NCI In Vivo Anticancer Drug Screen. Data for tumor model P388 Leukemia (intraperitoneal) in CD2F1 (CDF1) mice
Settings: endpoint: median survival time, higher = longer survival
In short: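 Mice carrying the transplanted tumor received test compound or vehicle. Survival was recorded in each group, and the value is the treated-group measurement divided by that of the vehicle-treated control group.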

[1] = dose: 60.0 mg/kg/injection, schedule: Q01DX005 (ip), vehicle: Klucel (hydroxypropylcellulose) (HPC)
[2] = dose: 120.0 mg/kg/injection, schedule: Q01DX005 (ip), vehicle: Klucel (hydroxypropylcellulose) (HPC)
[3] = dose: 240.0 mg/kg/injection, schedule: Q01DX005 (ip), vehicle: Klucel (hydroxypropylcellulose) (HPC)
[4] = dose: 50.0 mg/kg/injection, schedule: Q01DX009 (ip), vehicle: saline
[5] = dose: 100.0 mg/kg/injection, schedule: Q01DX009 (ip), vehicle: saline
[6] = dose: 200.0 mg/kg/injection, schedule: Q01DX009 (ip), vehicle: saline
[7] = dose: 50.0 mg/kg/injection, schedule: Q01DX009 (ip), vehicle: Klucel (hydroxypropylcellulose) (HPC)
[8] = dose: 100.0 mg/kg/injection, schedule: Q01DX009 (ip), vehicle: Klucel (hydroxypropylcellulose) (HPC)
[9] = dose: 200.0 mg/kg/injection, schedule: Q01DX009 (ip), vehicle: Klucel (hydroxypropylcellulose) (HPC)
[10] = dose: 12.5 mg/kg/injection, schedule: Q01DX009 (ip), vehicle: saline
[11] = dose: 60.0 mg/kg/injection, schedule: Q01DX005 (ip), vehicle: saline

Measured: T/C

BrC1=CC(Br)=C2N=C(N3CCCC3)N=C3N=C(C(Br)(Br)Br)N=C1N32
inactive: dose: 7.5 mg/kg/injection, schedule: Q01DX005 (ip), vehicle: Klucel (hydroxypropylcellulose) (HPC) 94 % of control | dose: 15.0 mg/kg/injection, schedule: Q01DX005 (ip), vehicle: Klucel (hydroxypropylcellulose) (HPC) 92 % of control | dose: 30.0 mg/kg/injection, schedule: Q01DX005 (ip), vehicle: Klucel (hydroxypropylcellulose) (HPC) 86 % of control and 90 % of control | [1] 86 % of control | [2] 88 % of control | [3] 94 % of control

CCC[CH2][GeH][CH2]CCC.CCC[CH2][Ge]([CH2]CCC)[CH2]CCC
inactive: [4] 98 % of control | [5] 88 % of control | [6] 98 % of control

CN(C)CSc1nc2ccccc2s1
inactive: [7] 96 % of control | [8] 94 % of control | [9] 94 % of control | dose: 400.0 mg/kg/injection, schedule: Q01DX009 (ip), vehicle: Klucel (hydroxypropylcellulose) (HPC) 95 % of control

Oc1ccc[nH]c1=S
inactive: [10] 104 % of control and 105 % of control

CC(=O)OCC1OC(CCC#N)C(OC(C)=O)C(OC(C)=O)C1OC(C)=O (stereo not drawn)
inactive: dose: 60.0 mg/kg/injection, schedule: Q01DX005 (ip), vehicle: saline with Tween-80 102 % of control and 100 % of control | [11] 102 % of control | dose: 120.0 mg/kg/injection, schedule: Q01DX005 (ip), vehicle: saline with Tween-80 98 % of control and 108 % of control | dose: 120.0 mg/kg/injection, schedule: Q01DX005 (ip), vehicle: saline 101 % of control | dose: 240.0 mg/kg/injection, schedule: Q01DX005 (ip), vehicle: saline with Tween-80 100 % of control and 102 % of control | dose: 240.0 mg/kg/injection, schedule: Q01DX005 (ip), vehicle: saline 101 % of control

O=c1ccc2cc3c(c(O)c2o1)OC=CC3
inactive: [7] 98 % of control | [8] 94 % of control

COc1ccc(C2c3cc4c(cc3OC3(N5CCCC5)CCCCC23)OCO4)cc1 (stereo not drawn)
inactive: [1] 99 % of control | [2] 94 % of control | [3] 88 % of control

C/C(=N\NC1=NCCN1)c1cn(C2=NCCN2)nc1C
inactive: dose: 15.0 mg/kg/injection, schedule: Q01DX005 (ip), vehicle: saline 99 % of control | dose: 30.0 mg/kg/injection, schedule: Q01DX005 (ip), vehicle: saline 97 % of control | [11] 102 % of control and 106 % of control

O=C(Cn1ccnc1[N+](=O)[O-])N(CCO)CCO
inactive: dose: 6.25 mg/kg/injection, schedule: Q01DX009 (ip), vehicle: saline 102 % of control | [10] 111 % of control | dose: 25.0 mg/kg/injection, schedule: Q01DX009 (ip), vehicle: saline 111 % of control | [4] 105 % of control | [5] 105 % of control | [6] 102 % of control | dose: 400.0 mg/kg/injection, schedule: Q01DX009 (ip), vehicle: saline 105 % of control | dose: 800.0 mg/kg/injection, schedule: Q01DX009 (ip), vehicle: saline 102 % of control

CCOC(=O)NN(C(=O)OCC)C(=C(C1CCCCC1)N1CCOCC1)N(NC(=O)OCC)C(=O)OCC
inactive: [7] 95 % of control | [8] 98 % of control | [9] 94 % of control

CCCCCCCCCCCCCCCCN(C(C)C)S(=O)(=O)c1ccc(Cl)c([N+](=O)[O-])c1
inactive: dose: 50.0 mg/kg/injection, schedule: Q04DX003 (ip), vehicle: saline sonified 90 % of control | dose: 100.0 mg/kg/injection, schedule: Q04DX003 (ip), vehicle: saline sonified 95 % of control | dose: 200.0 mg/kg/injection, schedule: Q04DX003 (ip), vehicle: saline sonified 95 % of control

CCSSc1ccccc1C(=O)O
inactive: dose: 50.0 mg/kg/injection, schedule: Q01DX005 (ip), vehicle: Klucel (hydroxypropylcellulose) (HPC) 102 % of control | dose: 100.0 mg/kg/injection, schedule: Q01DX005 (ip), vehicle: Klucel (hydroxypropylcellulose) (HPC) 109 % of control | dose: 200.0 mg/kg/injection, schedule: Q01DX005 (ip), vehicle: Klucel (hydroxypropylcellulose) (HPC) 112 % of control

COc1cc2c(cc1OC)[C@H]1C(=O)c3cc4c(cc3[C@H]1N(C)C2=O)OCO4
inactive: dose: 12.5 mg/kg/injection, schedule: Q01DX005 (ip), vehicle: distilled water + Tween-80 94 % of control | dose: 25.0 mg/kg/injection, schedule: Q01DX005 (ip), vehicle: distilled water + Tween-80 96 % of control | dose: 50.0 mg/kg/injection, schedule: Q01DX005 (ip), vehicle: distilled water + Tween-80 91 % of control

Source: PubChem BioAssay AID330 (DTP/NCI, 2004)
